Assay: Inhibition of binding to fibrinogen receptor

Log IC50	SMILES
-4.92	N=C(N)c1ccc(OCCCCC(=O)NC(CC(=O)O)C(=O)NC(CO)C(=O)O)cc1 (stereo unspecified)
-6.85	CC[C@H](C)[C@H](NC(=O)[C@H](CC(=O)O)NC(=O)CCCOc1ccc(C(=N)N)cc1)C(=O)O
-6.87	CC(C)CC(NC(=O)C(CC(=O)O)NC(=O)CCCOc1ccc(C(=N)N)cc1)C(=O)O (stereo unspecified)
-6.96	CC(C)C(NC(=O)C(CC(=O)O)NC(=O)CCCOc1ccc(C(=N)N)cc1)C(=O)O (stereo unspecified)
-6.64	CC(C)C(NC(=O)C(CC(=O)O)NC(=O)CCCCOc1ccc(C(=N)N)cc1)C(=O)O (stereo unspecified)
-7.12	CCCCC(NC(=O)C(CC(=O)O)NC(=O)CCCOc1ccc(C(=N)N)cc1)C(=O)O (stereo unspecified)
-6.64	CC(C)(C)CC(NC(=O)C(CC(=O)O)NC(=O)CCCOc1ccc(C(=N)N)cc1)C(=O)O (stereo unspecified)
-6.2	CC(C)[C@H](NC(=O)[C@H](CC(=O)O)NC(=O)CCCOc1ccc(C(=N)N)cc1)C(N)=O

Further lines, the compound ahead of its results:

SMILES	Log IC50
COc1ccc(CC(NC(=O)C(CC(=O)O)NC(=O)CCCCOc2ccc(C(=N)N)cc2)C(=O)O)cc1 (stereo unspecified)	-6.57
CCc1ccc(OCCNC(=O)C(CC(=O)O)NC(=O)CCCOc2ccc(C(=N)N)cc2)cc1 (stereo unspecified)	-6.5
CC(C)[C@H](NC(=O)[C@H](CC(=O)O)NC(=O)CCCOc1ccc(C(=N)N)cc1)C(=O)NC1CCCCC1	-6.7
COc1ccc(CC(NC(=O)C(CC(=O)O)NC(=O)CCCOc2ccc(C(=N)N)cc2)C(=O)O)cc1 (stereo unspecified)	-6.89
Cc1ccc(OCCNC(=O)C(CC(=O)O)NC(=O)CCCOc2ccc(C(=N)N)cc2)cc1C (stereo unspecified)	-6.3
CCN(CC)C(=O)[C@@H](NC(=O)[C@H](CC(=O)O)NC(=O)CCCOc1ccc(C(=N)N)cc1)C(C)C	-6.6
CC(C)[C@H](NC(=O)[C@H](CC(=O)O)NC(=O)CCCOc1ccc(C(=N)N)cc1)C(=O)N1CCOCC1	-7.1
CC(C)C(C)NC(=O)C(CC(=O)O)NC(=O)CCCOc1ccc(C(=N)N)cc1 (stereo unspecified)	-5.9
CC(C)c1ccc(OCCNC(=O)C(CC(=O)O)NC(=O)CCCOc2ccc(C(=N)N)cc2)cc1 (stereo unspecified)	-6.4
N=C(N)c1ccc(OCCCCC(=O)NC(CC(=O)O)C(=O)NC(Cc2ccc(O)cc2)C(=O)O)cc1 (stereo unspecified)	-6.19
CC(C)[C@H](NC(=O)[C@H](CC(=O)O)NC(=O)CCCOc1ccc(C(=N)N)cc1)C(=O)N1CCS(=O)(=O)CC1	-7.5
COC(=O)C(Cc1ccc(O)cc1)NC(=O)C(CC(=O)O)NC(=O)CCCCOc1ccc(C(=N)N)cc1 (stereo unspecified)	-5.35
N=C(N)c1ccc(OCCCC(=O)NC(CC(=O)O)C(=O)NC(Cc2ccc(O)cc2)C(=O)O)cc1 (stereo unspecified)	-6.8

Reference: ChEMBL document CHEMBL1130960, “QSAR study of the peptidic fibrinogen inhibitors FK633, FR158999 and related derivatives, using a novel and useful hydrophobic descriptor (logPmw)” (Bioorg Med Chem Lett, 1998)
